{"source": "paper PMC4490784", "about": "“Compensatory induction of MYC expression by sustained CDK9 inhibition via a BRD4-dependent mechanism” (eLife, 2015)", "key": {"CLK2": {"target": "T1, CLK2 (Homo sapiens, UniProt P49760)", "T1 construct": "purchased DiscoveRx KINOMEscan", "T1 sequence (P49760 whole entry)": "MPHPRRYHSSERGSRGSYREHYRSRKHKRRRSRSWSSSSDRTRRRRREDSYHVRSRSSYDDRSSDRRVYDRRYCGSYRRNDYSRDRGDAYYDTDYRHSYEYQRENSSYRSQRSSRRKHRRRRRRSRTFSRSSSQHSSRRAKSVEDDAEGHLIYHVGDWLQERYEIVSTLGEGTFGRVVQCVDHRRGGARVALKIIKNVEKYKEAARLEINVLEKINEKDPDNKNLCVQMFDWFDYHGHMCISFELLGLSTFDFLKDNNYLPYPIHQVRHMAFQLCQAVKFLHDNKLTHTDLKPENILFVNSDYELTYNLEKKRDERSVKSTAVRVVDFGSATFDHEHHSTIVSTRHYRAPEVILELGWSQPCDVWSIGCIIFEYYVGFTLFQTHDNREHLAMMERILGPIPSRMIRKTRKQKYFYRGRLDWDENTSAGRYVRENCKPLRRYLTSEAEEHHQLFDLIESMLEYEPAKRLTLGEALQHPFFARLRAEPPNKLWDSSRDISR", "test": "KINOMEscan binding assay", "details": "read-out: % Retention on Solid Support", "protocol": "(§1) As there are no commercial or in-house kinase assays available for CDK3, CDK5, CDK11 and CDK13, the inhibitory abilities of i-CDK9 toward these CDKs were thus evaluated in the DiscoveRx KINOMEscan assay, which is based on a proprietary active site-directed competition-binding platform ([Fabian et al., 2005]).\n(§2) The inhibitory activity of i-CDK9 for CDK1-CycB (Upstate/Millipore), CDK2-CycA (Invitrogen), CDK4-CycD1 (Novartis), CDK7-CycH-MAT1 (Invitrogen), and CDK9-CycT1 (Invitrogen) was assessed in the AlphaScreen (PerkinElmer, Inc)-based kinase assay developed at Novartis. Briefly, each CDK–cyclin pair was pre-incubated with i-CDK9 for 15 min, followed by addition of kinase substrates (ELK for CDK1 and CDK2, RB for CDK4, and CDK7tide for CDK7 and CDK9). The mixture was incubated at room temperature for additional 4–5 hr. The reaction was stopped and read on Envision (PerkinElmer, Inc). Selectivity against a large panel of over 400 kinases was evaluated using the KINOMEscan platform (DiscoveRx, CA) employing a proprietary active site-directed competition binding assay ([Fabian et al., 2005]). The assay was conducted at two different concentrations of i-CDK9 (1 and 10 µM) by DiscoveRx."}, "CTK": {"target": "T2, CTK (Homo sapiens, UniProt P42679)", "T2 construct": "purchased DiscoveRx KINOMEscan", "T2 sequence (P42679 whole entry)": "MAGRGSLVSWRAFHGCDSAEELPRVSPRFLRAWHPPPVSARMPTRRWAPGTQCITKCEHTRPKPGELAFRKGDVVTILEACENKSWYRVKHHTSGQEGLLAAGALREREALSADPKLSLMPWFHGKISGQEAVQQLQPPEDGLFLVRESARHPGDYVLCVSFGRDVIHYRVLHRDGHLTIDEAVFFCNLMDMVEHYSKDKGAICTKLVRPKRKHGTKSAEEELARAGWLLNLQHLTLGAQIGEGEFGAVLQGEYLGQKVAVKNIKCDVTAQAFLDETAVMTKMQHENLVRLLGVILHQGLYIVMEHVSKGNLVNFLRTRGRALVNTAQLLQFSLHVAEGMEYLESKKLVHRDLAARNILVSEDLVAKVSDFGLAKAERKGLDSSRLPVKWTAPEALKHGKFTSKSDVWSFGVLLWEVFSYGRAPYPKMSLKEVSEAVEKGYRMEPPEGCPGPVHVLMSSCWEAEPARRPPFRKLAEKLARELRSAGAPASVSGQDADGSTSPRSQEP", "test": "KINOMEscan binding assay", "details": "read-out: % Retention on Solid Support", "protocol": "as §1, §2"}, "GRK1": {"target": "T3, GRK1 (Homo sapiens, UniProt Q15835)", "T3 construct": "purchased DiscoveRx KINOMEscan", "T3 sequence (Q15835 whole entry)": "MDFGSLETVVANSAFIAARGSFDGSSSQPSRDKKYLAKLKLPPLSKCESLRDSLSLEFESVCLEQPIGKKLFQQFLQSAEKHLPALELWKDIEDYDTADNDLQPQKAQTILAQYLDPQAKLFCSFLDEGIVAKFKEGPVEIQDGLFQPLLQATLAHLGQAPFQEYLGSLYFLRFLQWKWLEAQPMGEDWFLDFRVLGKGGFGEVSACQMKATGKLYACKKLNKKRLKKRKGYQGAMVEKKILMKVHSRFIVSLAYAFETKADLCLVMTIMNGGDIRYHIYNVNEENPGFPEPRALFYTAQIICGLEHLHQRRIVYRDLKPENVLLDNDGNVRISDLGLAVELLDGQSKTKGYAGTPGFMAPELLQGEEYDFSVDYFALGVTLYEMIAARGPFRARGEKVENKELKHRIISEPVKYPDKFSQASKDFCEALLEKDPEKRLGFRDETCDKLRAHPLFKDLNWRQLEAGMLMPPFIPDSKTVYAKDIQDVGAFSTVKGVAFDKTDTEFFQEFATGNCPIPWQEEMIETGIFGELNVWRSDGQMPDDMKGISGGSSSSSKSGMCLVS", "test": "KINOMEscan binding assay", "details": "read-out: % Retention on Solid Support", "protocol": "as §1, §2"}, "JNK3": {"target": "T4, JNK3 (Homo sapiens, UniProt P53779)", "T4 construct": "purchased DiscoveRx KINOMEscan", "T4 sequence (P53779 whole entry)": "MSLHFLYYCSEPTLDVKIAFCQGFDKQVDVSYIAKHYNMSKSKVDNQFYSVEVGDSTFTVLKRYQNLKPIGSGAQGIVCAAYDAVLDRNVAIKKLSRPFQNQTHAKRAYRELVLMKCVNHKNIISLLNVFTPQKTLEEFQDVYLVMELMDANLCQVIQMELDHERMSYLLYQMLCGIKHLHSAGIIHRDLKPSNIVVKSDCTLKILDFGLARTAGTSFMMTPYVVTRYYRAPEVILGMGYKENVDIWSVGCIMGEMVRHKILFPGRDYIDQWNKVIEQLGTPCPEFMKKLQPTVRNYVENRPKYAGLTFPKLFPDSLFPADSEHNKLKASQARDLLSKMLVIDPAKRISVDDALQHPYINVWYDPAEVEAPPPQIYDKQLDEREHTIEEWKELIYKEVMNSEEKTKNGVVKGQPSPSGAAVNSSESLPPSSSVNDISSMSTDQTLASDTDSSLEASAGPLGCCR", "test": "KINOMEscan binding assay", "protocol": "as §1, §2"}, "MERTK": {"target": "T5, MERTK (Homo sapiens, UniProt Q12866)", "T5 construct": "purchased DiscoveRx KINOMEscan", "T5 sequence (Q12866 21-999)": "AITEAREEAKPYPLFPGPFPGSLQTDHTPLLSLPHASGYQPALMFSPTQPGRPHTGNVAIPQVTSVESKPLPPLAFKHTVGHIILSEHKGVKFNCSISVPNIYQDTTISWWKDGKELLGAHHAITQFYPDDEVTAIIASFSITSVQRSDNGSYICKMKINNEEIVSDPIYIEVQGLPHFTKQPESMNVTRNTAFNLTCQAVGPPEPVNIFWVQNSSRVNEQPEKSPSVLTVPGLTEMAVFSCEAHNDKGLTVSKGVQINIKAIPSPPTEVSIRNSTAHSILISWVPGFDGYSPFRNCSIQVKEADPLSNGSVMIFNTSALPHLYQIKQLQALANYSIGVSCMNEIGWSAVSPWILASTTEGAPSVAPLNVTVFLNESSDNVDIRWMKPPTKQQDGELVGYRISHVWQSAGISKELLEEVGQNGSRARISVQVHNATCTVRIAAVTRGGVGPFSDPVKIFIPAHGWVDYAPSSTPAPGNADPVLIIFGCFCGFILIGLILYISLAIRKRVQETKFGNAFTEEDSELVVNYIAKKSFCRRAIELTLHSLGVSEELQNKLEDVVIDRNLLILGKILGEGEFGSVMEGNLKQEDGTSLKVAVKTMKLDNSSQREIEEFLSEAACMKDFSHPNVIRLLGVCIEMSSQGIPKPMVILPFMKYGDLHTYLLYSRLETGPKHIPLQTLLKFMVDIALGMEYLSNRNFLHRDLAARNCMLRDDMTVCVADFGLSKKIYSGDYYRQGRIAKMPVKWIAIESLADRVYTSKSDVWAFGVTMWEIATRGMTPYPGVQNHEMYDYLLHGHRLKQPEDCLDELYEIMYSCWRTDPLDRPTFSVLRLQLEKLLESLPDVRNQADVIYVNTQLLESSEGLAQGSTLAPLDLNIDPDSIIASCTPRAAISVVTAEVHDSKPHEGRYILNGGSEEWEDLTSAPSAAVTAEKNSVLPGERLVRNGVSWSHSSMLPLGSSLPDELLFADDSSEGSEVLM", "test": "KINOMEscan binding assay", "details": "read-out: % Retention on Solid Support", "protocol": "as §1, §2"}, "SYK": {"target": "T6, SYK (Homo sapiens, UniProt P43405)", "T6 construct": "purchased DiscoveRx KINOMEscan", "test": "KINOMEscan binding assay", "protocol": "as §1, §2"}, "PKNB(M.tuberculosis)": {"target": "T7, PKNB(M.tuberculosis) (Mycobacterium tuberculosis, UniProt P9WI81)", "T7 construct": "purchased DiscoveRx KINOMEscan", "T7 sequence (P9WI81 whole entry)": "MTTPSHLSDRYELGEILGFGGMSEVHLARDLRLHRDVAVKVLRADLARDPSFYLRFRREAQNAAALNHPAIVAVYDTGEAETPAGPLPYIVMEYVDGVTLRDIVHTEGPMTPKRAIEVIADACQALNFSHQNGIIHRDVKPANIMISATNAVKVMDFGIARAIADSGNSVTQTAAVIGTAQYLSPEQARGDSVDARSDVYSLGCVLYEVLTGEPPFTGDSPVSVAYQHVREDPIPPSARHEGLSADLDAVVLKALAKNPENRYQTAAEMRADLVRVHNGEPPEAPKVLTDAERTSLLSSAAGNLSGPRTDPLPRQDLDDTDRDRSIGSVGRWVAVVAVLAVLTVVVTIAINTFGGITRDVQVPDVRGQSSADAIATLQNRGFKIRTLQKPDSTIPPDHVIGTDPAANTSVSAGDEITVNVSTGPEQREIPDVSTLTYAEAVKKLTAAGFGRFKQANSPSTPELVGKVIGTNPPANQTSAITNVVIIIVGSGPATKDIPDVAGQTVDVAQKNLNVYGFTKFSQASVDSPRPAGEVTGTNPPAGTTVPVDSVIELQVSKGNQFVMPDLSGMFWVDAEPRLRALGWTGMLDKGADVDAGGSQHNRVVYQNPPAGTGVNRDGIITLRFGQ", "test": "KINOMEscan binding assay", "details": "1 µM i-CDK9; read-out: % Retention on Solid Support"}, "[1]": {"target": "T8, affinity-purified CDK12-F-CycK (Homo sapiens, UniProt Q9NYV4)", "T8 construct": "made in house", "test": "In vitro kinase reaction, GST-CTD substrate, pSer2 Western blotting", "assay_type": "biochemical", "details": "even at 80 nM", "protocol": "(§3) Figure 1. i-CDK9 is a potent and selective CDK9 inhibitor that elicits cellular responses indicative of P-TEFb inhibition. (A and B) Structures and selectivity profiles of i-CDK9 (A) and falvopiridol (B). […] (C) In vitro kinase reactions containing affinity-purified CDK9-F-CycT or CDK12-F-CycK and GST-CTD as a substrate were conducted in the presence of the indicated concentrations of i-CDK9. pSer2 and the Flag-tagged kinase in each reaction were detected by Western blotting with anti-pSer2 and anti-Flag antibodies, respectively. (D) HeLa cells were treated for 8 hr with DMSO or the indicated concentrations of i-CDK9. Total cell lysates were examined by immunoblotting for the proteins labeled on the left. DOI: http://dx.doi.org/10.7554/eLife.06535.003 Figure 1—source data 1. Selectivity profile of i-CDK9. DOI: http://dx.doi.org/10.7554/eLife.06535.004 Figure 1—figure supplement 1. Recombinant CDK12-CycK is less sensitive to inhibition by i-CDK9.\n(§4) Among all members of the CDK super family, CDK12 deserves special attention because of its reported phosphorylation of the Pol II CTD on Ser2, an ability that is shared with CDK9 ([Bartkowiak et al., 2010]). […] Phosphorylation of Ser2 (pSer2) was detected by Western blotting with a specific antibody."}, "[2]": {"target": "T9, affinity-purified CDK9-F-CycT (Homo sapiens, UniProt P50750)", "T9 construct": "made in house; host or cells: probably the HeLa-based F1C2 cells", "test": "In vitro kinase reaction, GST-CTD substrate, pSer2 Western blotting", "assay_type": "biochemical", "details": "read-out: estimated IC50 of Ser2 phosphorylation", "protocol": "as §3, §4"}, "[3]": {"tested_on": "7SK snRNP in HeLa-based F1C2 cells", "test": "CDK9-F co-immunoprecipitation: disruption of 7SK snRNP, formation of BRD4-P-TEFb", "assay_type": "cell-based, human", "protocol": "A number of stress-inducing agents/conditions are known to cause the release of P-TEFb from 7SK snRNP, which serves as the principal reservoir of uncommitted P-TEFb activity in the nucleus (reviewed in [Zhou et al., 2012]). […] CDK9-F was stably expressed in the HeLa-based F1C2 cells ([Yang et al., 2001]) that were treated with a wide range of i-CDK9 concentrations for 8 hr.\nJust like the induction of MYC expression (Figure 3B), the disruption of 7SK snRNP and formation of BRD4-P-TEFb were highly sensitive to i-CDK9 and required as little as 0.1 μM of the drug (Figure 4A, compare lane 8 to lane 6). […] In a time course analysis, i-CDK9 (0.3 μM)-induced disruption of 7SK snRNP at a time point (1 hr) that was much earlier than that required to cause about 50% reduction in global pSer2 (8 hr; Figure 4—figure supplement 1).\nAll Co-immunoprecipitation experiments were performed in NEs prepared from F1C2 cells that stably express CDK9-F or the parental HeLa cells transfected with the indicated cDNAs. The procedures have been described previously ([Lu et al., 2014])."}, "[4]": {"target": "JAK1(JH1domain-catalytic) (Homo sapiens, UniProt P23458)", "sequence (P23458 854-1154 limits assumed)": "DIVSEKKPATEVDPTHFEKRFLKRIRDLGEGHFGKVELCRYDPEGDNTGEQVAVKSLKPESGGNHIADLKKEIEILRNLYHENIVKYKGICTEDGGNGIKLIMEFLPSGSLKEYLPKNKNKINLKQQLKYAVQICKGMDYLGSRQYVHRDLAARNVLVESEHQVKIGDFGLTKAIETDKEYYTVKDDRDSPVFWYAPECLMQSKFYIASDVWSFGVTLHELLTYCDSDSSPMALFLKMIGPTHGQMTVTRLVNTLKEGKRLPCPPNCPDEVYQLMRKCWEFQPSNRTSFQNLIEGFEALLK", "test": "KINOMEscan binding assay", "design": "JAK1(JH1domain-catalytic); purchased DiscoveRx KINOMEscan", "protocol": "as §1, §2"}, "CDK9-CycT1": {"target": "CDK9-CycT1 (Homo sapiens, UniProt P50750)", "test": "In vitro kinase reaction with baculovirus-produced recombinant kinase (SignalChem)", "assay_type": "biochemical", "design": "purchased SignalChem; host or cells: baculovirus-produced", "details": "80 nM i-CDK9"}, "[5]": {"target": "JAK1(JH2domain-pseudokinase) (Homo sapiens, UniProt P23458)", "sequence (P23458 561-860 limits assumed)": "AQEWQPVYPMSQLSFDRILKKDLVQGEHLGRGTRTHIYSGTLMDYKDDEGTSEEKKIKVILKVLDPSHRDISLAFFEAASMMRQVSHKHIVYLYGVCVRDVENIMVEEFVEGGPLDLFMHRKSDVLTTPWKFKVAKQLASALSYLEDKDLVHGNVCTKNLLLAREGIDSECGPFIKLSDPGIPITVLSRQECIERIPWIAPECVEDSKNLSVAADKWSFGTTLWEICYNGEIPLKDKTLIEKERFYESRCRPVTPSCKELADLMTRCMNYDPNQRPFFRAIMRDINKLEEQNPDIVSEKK", "test": "KINOMEscan binding assay", "design": "JAK1(JH2domain-pseudokinase); purchased DiscoveRx KINOMEscan", "protocol": "as §1, §2"}}, "data": [{"smiles": "N[C@H]1CC[C@H](Nc2cc(-c3cccc(NCc4cccc(F)c4)n3)c(Cl)cn2)CC1", "note": "[i-CDK9, N2′-(trans-4-aminocyclohexyl)-5′-chloro-N6-(3-fluorobenzyl)-2,4′-bipyridine-2′,6-diamine]", "values": [{"measurement": "remaining binding at 1 µM", "setting": "CLK2; 1 µM i-CDK9", "value": 61, "unit": "%"}, {"measurement": "remaining binding at 10 µM", "setting": "CLK2; 10 µM i-CDK9", "value": 26, "unit": "%"}, {"measurement": "remaining binding at 1 µM", "setting": "CTK; 1 µM i-CDK9", "value": 75, "unit": "%"}, {"measurement": "remaining binding at 10 µM", "setting": "CTK; 10 µM i-CDK9", "value": 100, "unit": "%"}, {"measurement": "remaining binding at 1 µM", "setting": "GRK1; 1 µM i-CDK9", "value": 95, "unit": "%"}, {"measurement": "remaining binding at 10 µM", "setting": "GRK1; 10 µM i-CDK9", "value": 100, "unit": "%"}, {"measurement": "% Retention on Solid Support", "setting": "JNK3; 1 µM i-CDK9", "value": 94, "unit": "%"}, {"measurement": "% Retention on Solid Support", "setting": "JNK3; 10 µM i-CDK9", "value": 34, "unit": "%"}, {"measurement": "remaining binding at 1 µM", "setting": "MERTK; 1 µM i-CDK9", "value": 100, "unit": "%"}, {"measurement": "remaining binding at 10 µM", "setting": "MERTK; 10 µM i-CDK9", "value": 60, "unit": "%"}, {"measurement": "% Retention on Solid Support", "setting": "SYK; 1 µM i-CDK9", "value": 86, "unit": "%"}, {"measurement": "% Retention on Solid Support", "setting": "SYK; 10 µM i-CDK9", "value": 100, "unit": "%"}, {"measurement": "remaining binding at 1 µM", "setting": "PKNB(M.tuberculosis)", "value": 100, "unit": "%"}, {"measurement": "inhibition of Ser2 phosphorylation", "setting": "[1]", "value": "no obvious inhibition"}, {"measurement": "IC50", "setting": "[2]", "value": "~2", "unit": "nM"}, {"measurement": "time point of disruption of 7SK snRNP", "setting": "[3]; 0.3 μM", "value": 1, "unit": "h"}, {"measurement": "concentration required for disruption of 7SK snRNP and formation of BRD4-P-TEFb", "setting": "[3]; 8 hr", "value": 0.1, "unit": "µM"}, {"measurement": "% Retention on Solid Support", "setting": "[4]; 1 µM i-CDK9", "value": 100, "unit": "%"}, {"measurement": "% Retention on Solid Support", "setting": "[4]; 10 µM i-CDK9", "value": 100, "unit": "%"}, {"measurement": "inhibition of Ser2 phosphorylation", "setting": "CDK9-CycT1", "value": "mostly inhibited"}, {"measurement": "% Retention on Solid Support", "setting": "[5]; 1 µM i-CDK9", "value": 85, "unit": "%"}, {"measurement": "% Retention on Solid Support", "setting": "[5]; 10 µM i-CDK9", "value": 81, "unit": "%"}]}]}
